Patent US20150274735A1, “USE OF A TETRASUBSTITUTED PYRAZOLO[4, 3-D]PYRIMIDINE COMPOUND FOR TREATING DIABETIC NEPHROPATHY” (priority 2012, published 2015)
Entries after “also recorded” stand apart in the source; their conditions may differ.

Assays:
[1] = clinical; conditions: male, human, in vivo
Procedure: (§1) Both single and multiple dose clinical studies were conducted with an oral solution or suspension ranging from single doses of 0.3 to 400 mg and multiple doses of 30 to 200 mg.
(§2) For toxicokinetic studies, this method was validated over a concentration range of 10 to 1000 ng/mL for a 50 μL plasma sample. Radiometric methods were used to measure [^14C]

[2] = test system: Type II diabetic male patients; test: Microalbuminuria in Type II diabetic patients (FIG. 1); type: in vivo, human; conditions: 50 mg daily for 30 days (n=20), relative to baseline or placebo
[3] = Pharmacokinetics in rats; type: in vivo, rat
Procedure: as §2

[4] = test system: mice; conditions: mouse, in vivo, 14 days
[5] = test system: rats; test: Pulmonary function - rat, respiratory parameters; type: in vivo; conditions: oral, up to 300 mg/kg
Text: (§5) For in vivo studies, the oral route of exposure was used. Rats given diazepam or frusemide served as positive controls in the locomotor activity and fluid/electrolyte excretion studies, respectively. […] Positive controls or animals given positive controls were not assessed concurrently in the remaining studies as these studies utilized well-characterized models to evaluate safety parameters.

[6] = test system: rats; conditions: rat, in vivo
[7] = Pharmacokinetics in dogs; type: in vivo, dog
Procedure: as §2

[8] = in vitro; conditions: rabbit, plasma
[9] = molecular target: T1, PDE6 enzyme (human retinal rod) (Homo sapiens, UniProt P16499+P35913); test: PDE6 enzyme (human retinal rod) inhibition; type: biochemical
T1 construct: against human retinal cone and rod; from tissue; host or cells: human retina (rod)

[10] = molecular target: CYP3A4 (Homo sapiens, UniProt P08684); test: CYP inhibition in human liver microsomes; type: in vitro ADME; conditions: probe midazolam, testosterone and felodipine
[11] = test system: major human cytochrome P450 enzymes; test: Inhibition of the major human cytochrome P450 enzymes; type: in vitro ADME
[12] = molecular target: T2, CYP2C9 (Homo sapiens, UniProt P11712); test: CYP inhibition in human liver microsomes; type: in vitro ADME
T2 construct: was determined in human liver microsomes; from tissue; host or cells: human liver microsomes

[13] = test system: Salmonella typhimurium (Strains TA-1535, TA-1537) and Escherichia coli (Strain WP2uvrA); test: Microbial reverse mutation (mutagenicity); type: cell-based; set-up: dose or concentration left out as unconfirmed; conditions: (±S9)
Procedure: (§3) Study designs and dose selection were consistent with International Conference on Harmonization and Organization for Economic Cooperation and Development guidelines for mutagenicity and clastogenicity assays. All in vitro tests were conducted with and without exogenous metabolic activation using concentrations up to those limited by cytotoxicity or insolubility.

[14] = Excretion of total radioactivity in rats; type: in vivo, rat
Procedure: as §2

[15] = test system: spontaneously hypertensive rats (SHR); test: Antihypertensive efficacy in conscious SHR, oral dosing, radiotelemetry; type: in vivo, rat; conditions: for Effect on mean arterial pressure (MAP): 14-day dosing period
[16] = test system: Rat Bone Marrow; test: Micronucleus assay in rat bone marrow; type: in vivo; conditions: 100, 300, 600 mg/kg/day
Procedure: as §3

[17] = molecular target: T3, CYP2C19 (Homo sapiens, UniProt P33261); test: CYP inhibition in human liver microsomes; type: in vitro ADME
T3 construct: was determined in human liver microsomes; from tissue; host or cells: human liver microsomes

[18] = molecular target: human PDE11 (Homo sapiens, UniProt Q9HCR9); test: PDE11 enzyme (human) inhibition; type: biochemical
[19] = molecular target: T4, dog platelet-derived PDE5 (Canis lupus familiaris, UniProt O77746); test: PDE5 enzyme (dog platelet) inhibition; type: biochemical
T4 construct: rat and dog platelet-derived PDE5; from tissue; host or cells: dog platelets

[20] = test system: rats; test: Central nervous system - rat, locomotor activity; type: in vivo; conditions: oral, up to 300 mg/kg
Text: as §5

[21] = test system: Human Peripheral Lymphocytes; test: In vitro cytogenetic assay, structural chromosome aberration; type: cell-based; conditions: 100, 350, 500 μg/mL (3 h − S9); 100, 200, 350 μg/mL (3 h + S9); 12.5, 50, 100 μg/mL (24 h − S9)
Procedure: as §3

[22] = test system: dog Purkinje fiber; test: Dog Purkinje fiber assay; conditions: up to 10 μM (4.77 μg/mL)
Text: (§4) For in vivo studies, the oral route of exposure was used. Rats given diazepam or frusemide served as positive controls in the locomotor activity and fluid/electrolyte excretion studies, respectively. Dofetilide was used for assay validity or a positive control in the dofetilide and hERG assays, respectively. Positive controls or animals given positive controls were not assessed concurrently in the remaining studies as these studies utilized well-characterized models to evaluate safety parameters.

[23] = molecular target: CYP1A2 (Homo sapiens, UniProt P05177); test: CYP inhibition in human liver microsomes; type: in vitro ADME
[24] = in vitro; conditions: human, plasma
[25] = Excretion of total radioactivity in dogs; type: in vivo, dog
Procedure: as §2

[26] = molecular target: T5, rat PDE5 (Rattus norvegicus, UniProt O54735); test: PDE5 enzyme (rat platelet) inhibition; type: biochemical; conditions: rat platelet-derived enzyme
T5 construct: rat and dog platelet-derived PDE5; from tissue; host or cells: rat platelets

[27] = test system: healthy male volunteers; test: Human tolerability and safety, single and multiple dose clinical studies
Procedure: as §1

[28] = molecular target: T6, CYP2D6 (Homo sapiens, UniProt P10635); test: CYP inhibition in human liver microsomes; type: in vitro ADME
T6 construct: was determined in human liver microsomes; from tissue; host or cells: human liver microsomes

[29] = test system: isolated rat aortic rings; test: Aortic ring relaxation (rat); conditions: read-out: Aortic ring vasorelaxation EC50
[30] = test system: dogs; test: Cardiovascular - conscious dogs, hemodynamic and ECG parameters; type: in vivo, dog
Text: as §4
These cardiovascular effects are consistent with cGMP elevation in vascular smooth muscle, resulting from inhibition of cGMP-specific PDE5.

[31] = Tissue distribution study in rats, radio labeled compound; type: in vivo, rat; conditions: radio labeled Example 1
[32] = molecular target: PDE6 enzyme (human retinal cone) (Homo sapiens, UniProt P51160); test: PDE6 enzyme (human retinal cone) inhibition; type: biochemical
[33] = in vitro; conditions: rat, plasma
[34] = test system: rats; test: Renal - rat, fluid and electrolyte excretion; type: in vivo; conditions: oral, 3, 30, 300 mg/kg
Text: as §5

[35] = in vitro; conditions: dog, plasma
[36] = Single-dose toxicity/toxicokinetic study of polymorph forms in dogs; type: in vivo; conditions: equivalent dose 100 mg/kg
[37] = Single-dose toxicity/toxicokinetic study of polymorph forms in rats; type: in vivo; conditions: equivalent doses 100 and 300 mg/kg

T3 sequence (P33261 whole entry): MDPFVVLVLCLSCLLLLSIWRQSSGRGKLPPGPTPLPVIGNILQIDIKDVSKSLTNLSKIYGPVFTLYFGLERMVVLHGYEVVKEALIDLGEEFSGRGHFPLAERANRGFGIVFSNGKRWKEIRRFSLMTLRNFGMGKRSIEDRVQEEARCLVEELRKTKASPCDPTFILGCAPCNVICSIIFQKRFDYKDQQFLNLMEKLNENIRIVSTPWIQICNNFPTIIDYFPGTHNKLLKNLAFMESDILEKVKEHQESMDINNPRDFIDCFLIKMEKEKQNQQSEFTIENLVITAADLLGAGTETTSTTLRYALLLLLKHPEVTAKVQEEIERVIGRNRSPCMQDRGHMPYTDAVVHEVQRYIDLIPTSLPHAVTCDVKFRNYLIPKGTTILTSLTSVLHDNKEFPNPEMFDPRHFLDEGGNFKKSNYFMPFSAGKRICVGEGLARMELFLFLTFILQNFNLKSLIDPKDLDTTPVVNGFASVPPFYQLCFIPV
T2 sequence (P11712 whole entry): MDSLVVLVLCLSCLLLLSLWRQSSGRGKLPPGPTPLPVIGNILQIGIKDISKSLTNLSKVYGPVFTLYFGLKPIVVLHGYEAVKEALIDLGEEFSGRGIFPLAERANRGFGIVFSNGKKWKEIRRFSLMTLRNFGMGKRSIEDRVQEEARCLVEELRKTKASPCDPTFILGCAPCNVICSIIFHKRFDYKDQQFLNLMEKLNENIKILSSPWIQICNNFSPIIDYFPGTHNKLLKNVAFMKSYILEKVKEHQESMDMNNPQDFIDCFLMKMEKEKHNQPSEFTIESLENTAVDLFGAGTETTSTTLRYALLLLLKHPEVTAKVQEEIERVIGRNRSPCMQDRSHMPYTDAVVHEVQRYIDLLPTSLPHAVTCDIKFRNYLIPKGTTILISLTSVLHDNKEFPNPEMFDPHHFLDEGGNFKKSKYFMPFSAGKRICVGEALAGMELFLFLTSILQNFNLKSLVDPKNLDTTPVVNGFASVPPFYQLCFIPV
CYP1A2, sequence (P05177 whole entry): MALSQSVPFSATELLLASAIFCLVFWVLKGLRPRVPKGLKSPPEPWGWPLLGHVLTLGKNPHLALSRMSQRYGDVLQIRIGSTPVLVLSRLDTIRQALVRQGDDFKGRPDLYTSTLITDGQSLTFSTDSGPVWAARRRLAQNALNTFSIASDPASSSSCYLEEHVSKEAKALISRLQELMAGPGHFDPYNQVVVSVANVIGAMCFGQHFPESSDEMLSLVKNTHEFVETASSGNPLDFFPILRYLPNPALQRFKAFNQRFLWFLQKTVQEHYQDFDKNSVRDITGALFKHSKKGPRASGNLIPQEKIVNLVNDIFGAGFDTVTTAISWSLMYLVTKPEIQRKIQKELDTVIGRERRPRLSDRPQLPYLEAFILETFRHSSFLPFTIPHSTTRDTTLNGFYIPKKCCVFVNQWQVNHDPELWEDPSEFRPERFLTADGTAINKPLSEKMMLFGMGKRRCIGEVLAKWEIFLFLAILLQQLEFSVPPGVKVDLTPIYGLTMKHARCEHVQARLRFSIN
PDE6 enzyme (human retinal cone), sequence (P51160 whole entry): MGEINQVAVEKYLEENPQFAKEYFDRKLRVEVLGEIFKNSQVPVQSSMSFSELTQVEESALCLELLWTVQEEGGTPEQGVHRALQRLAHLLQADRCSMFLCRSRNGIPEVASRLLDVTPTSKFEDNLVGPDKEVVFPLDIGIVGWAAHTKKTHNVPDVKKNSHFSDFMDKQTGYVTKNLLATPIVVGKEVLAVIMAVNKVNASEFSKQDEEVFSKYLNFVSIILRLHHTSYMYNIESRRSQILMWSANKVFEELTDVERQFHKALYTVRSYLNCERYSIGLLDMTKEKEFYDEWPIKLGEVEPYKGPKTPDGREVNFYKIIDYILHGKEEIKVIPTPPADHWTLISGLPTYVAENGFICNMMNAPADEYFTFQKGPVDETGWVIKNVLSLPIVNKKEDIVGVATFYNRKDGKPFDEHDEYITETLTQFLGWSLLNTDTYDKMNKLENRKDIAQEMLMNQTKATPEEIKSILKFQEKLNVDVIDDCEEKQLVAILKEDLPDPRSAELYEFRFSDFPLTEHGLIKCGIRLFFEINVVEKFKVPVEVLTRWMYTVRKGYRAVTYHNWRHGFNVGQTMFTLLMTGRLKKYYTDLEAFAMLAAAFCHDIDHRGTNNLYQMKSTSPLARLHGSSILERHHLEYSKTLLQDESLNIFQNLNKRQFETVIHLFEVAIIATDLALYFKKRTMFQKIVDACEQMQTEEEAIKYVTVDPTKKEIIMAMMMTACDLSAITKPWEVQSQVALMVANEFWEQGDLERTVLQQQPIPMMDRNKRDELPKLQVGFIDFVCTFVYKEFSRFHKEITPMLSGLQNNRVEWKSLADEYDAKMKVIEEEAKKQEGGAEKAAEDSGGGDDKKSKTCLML
human PDE11, sequence (Q9HCR9 whole entry): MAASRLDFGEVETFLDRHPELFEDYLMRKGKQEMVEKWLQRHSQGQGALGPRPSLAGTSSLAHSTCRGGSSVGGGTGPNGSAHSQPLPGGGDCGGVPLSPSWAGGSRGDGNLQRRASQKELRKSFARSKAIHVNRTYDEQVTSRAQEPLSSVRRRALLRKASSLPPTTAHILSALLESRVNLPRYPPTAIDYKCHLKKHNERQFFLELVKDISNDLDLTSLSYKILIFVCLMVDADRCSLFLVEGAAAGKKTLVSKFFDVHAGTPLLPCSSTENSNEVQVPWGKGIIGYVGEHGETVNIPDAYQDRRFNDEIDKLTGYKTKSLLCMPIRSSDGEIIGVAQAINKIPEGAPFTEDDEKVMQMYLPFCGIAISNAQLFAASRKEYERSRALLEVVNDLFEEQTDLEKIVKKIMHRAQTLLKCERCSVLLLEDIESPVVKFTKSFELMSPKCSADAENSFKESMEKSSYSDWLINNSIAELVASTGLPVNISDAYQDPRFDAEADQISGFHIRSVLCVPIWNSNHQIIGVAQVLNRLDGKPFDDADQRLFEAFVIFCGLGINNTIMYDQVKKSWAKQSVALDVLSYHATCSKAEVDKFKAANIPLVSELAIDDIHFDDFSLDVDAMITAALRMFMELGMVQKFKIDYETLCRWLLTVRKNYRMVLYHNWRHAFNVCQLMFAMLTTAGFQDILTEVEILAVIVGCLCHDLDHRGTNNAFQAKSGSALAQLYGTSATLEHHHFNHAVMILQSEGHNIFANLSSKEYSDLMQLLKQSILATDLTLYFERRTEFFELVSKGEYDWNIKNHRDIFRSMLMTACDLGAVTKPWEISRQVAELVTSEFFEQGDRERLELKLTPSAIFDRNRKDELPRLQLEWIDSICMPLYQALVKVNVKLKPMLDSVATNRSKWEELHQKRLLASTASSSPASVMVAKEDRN
T6 sequence (P10635 whole entry): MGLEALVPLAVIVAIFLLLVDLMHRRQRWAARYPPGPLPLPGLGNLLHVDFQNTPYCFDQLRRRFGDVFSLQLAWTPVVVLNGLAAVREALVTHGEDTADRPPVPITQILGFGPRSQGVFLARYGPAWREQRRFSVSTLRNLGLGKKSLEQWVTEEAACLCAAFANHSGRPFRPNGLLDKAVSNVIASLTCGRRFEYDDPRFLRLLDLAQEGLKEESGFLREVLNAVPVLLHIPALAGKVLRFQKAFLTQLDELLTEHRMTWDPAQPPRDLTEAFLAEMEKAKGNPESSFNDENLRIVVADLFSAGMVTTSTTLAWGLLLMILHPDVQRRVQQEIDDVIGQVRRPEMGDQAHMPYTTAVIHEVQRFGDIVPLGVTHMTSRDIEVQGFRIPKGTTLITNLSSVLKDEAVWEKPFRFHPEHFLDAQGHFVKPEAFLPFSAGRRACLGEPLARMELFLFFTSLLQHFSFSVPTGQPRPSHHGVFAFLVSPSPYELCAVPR
CYP3A4, sequence (P08684 whole entry): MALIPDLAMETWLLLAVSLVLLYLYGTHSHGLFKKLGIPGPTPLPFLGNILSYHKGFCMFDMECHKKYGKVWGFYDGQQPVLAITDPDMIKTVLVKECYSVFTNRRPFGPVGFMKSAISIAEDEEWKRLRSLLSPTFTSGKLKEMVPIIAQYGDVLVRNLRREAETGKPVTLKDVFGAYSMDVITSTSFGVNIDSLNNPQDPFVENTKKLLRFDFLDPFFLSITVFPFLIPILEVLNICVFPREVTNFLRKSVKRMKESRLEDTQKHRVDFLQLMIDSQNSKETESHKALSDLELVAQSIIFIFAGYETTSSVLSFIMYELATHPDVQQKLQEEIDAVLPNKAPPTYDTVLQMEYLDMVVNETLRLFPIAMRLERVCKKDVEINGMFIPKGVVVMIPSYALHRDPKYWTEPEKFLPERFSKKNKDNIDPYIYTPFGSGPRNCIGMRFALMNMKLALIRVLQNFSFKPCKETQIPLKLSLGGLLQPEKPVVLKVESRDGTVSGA

For CCCc1nn(C)c2c(=O)[nH]c(-c3cc(S(=O)(=O)N4CCN(C)CC4)ccc3OCC)nc12 [Sildenafil, sildenafil], the half-life ([1]; Human Half-life) was 3.7 h, the Microalbuminuria / albuminuria [2] was “reduces albuminuria” and the Microalbuminuria / albuminuria ([2]; listed as sildenafil citrate) was “significantly decreased”.
In the case of CCOCCn1nc(C(=O)NS(C)(=O)=O)c2nc(N(C)CC)nc(Nc3cc(C)ccn3)c21 [Example 1, 1-(2-ethoxyethyl)-5-(ethyl(methyl)amino)-7-((4-methylpyridin-2-yl)amino)-N-(methylsulfonyl)-1H-pyrazolo[4,3-d]pyrimidine-3-carboxamide], the Steady-state distribution volume ([3]; rat) is reported as “lower than total body water”, the bioavailability ([3]; rat, plasma, po, rats, single dose, read-out: Absolute oral bioavailability) is reported as 82% and the “Half-life (in words)” value ([3]; rats) is reported as “long half-life values”. For the same compound, the “Oral bioavailability (in words)” value ([3]; rats) was “high”, the Plasma clearance ([3]; rats, intravenous administration) was “low clearance; also recorded: lower that the liver-blood flow” and the Maximum non-lethal dose [4] was 2000 mg/kg. The “Effects on pulmonary function” value [5] was “no adverse effects”, the “Single dose toxicity findings” value [6] was “No toxicity was observed” and the Maximum non-lethal dose ([6]; 14 days) was 2000 mg/kg. The Steady-state distribution volume ([7]; dog) was “lower than total body water”, the bioavailability ([7]; dog, plasma, po, dogs, single dose, read-out: Absolute oral bioavailability) was 77% and the Cmax ([7]; dog, plasma, dogs, 5 mg/kg oral) was 12800 ng/mL. The “Half-life (in words)” value ([7]; dogs) was “long half-life values”, the “Oral bioavailability (in words)” value ([7]; dogs) was “high” and the “Dog Cmax as multiple of human Cmax” value ([7]; dogs 5 mg/kg versus humans 30 mg dose) was ~8 times. For the same compound, the Plasma clearance ([7]; dogs, intravenous administration) was “low clearance; also recorded: lower that the liver-blood flow”, the fraction unbound [8] was 0.012 and the IC50 [9] was 63.6 nM. The IC50 [10] was > 30000 nM, the “Inhibition of the major human cytochrome P450 enzymes” value [11] was “no significant inhibition” and the IC50 [12] was > 30000 nM. The Mutagenicity result [13] was “Negative”, the “Administered dose (total radioactivity) eliminated in feces” value [14] was “greater than 80%” and the “Time within which the majority of the radioactivity was recovered” value [14] was ≤ 48 h. The Total radioactivity recovered [14] was “greater than 92%”, the “Effect on mean arterial pressure (MAP)” value [15] was “significant, sustained reduction in MAP” and the “Effect on MAP in combination” value ([15]; combined with an ACE inhibitor) was “greater MAP lowering effects than the ACE inhibitor alone”. For the same compound, the “Free plasma concentration giving significant MAP reduction, as multiple of rat PDE5 IC50” value ([15]; daily oral dosing) was “approximately 7 fold”, the “ECmax (maximally efficacious concentration)” value ([15]; oral dosing, unbound plasma concentration) was “ECmax = 6.5 nM” and the “Micronucleus assay in rat bone marrow result” value [16] was “Negative”. For the same compound, the IC50 [17] was > 30000 nM, the IC50 [18] was 26.3 nM and the IC50 [19] was 0.65 nM. For the same compound, the “Effects on locomotor activity” value [20] was “minor, nondose-related effects consisting of decreased rearing and center rearing”, the “Clastogenicity in vitro, structural chromosome aberration result” value [21] was “Negative” and the “Effects in dog Purkinje fiber assay” value [22] was “No relevant effects”. The IC50 [23] was > 30000 nM, the fraction unbound [24] was 0.007 and the “Administered dose (total radioactivity) eliminated in feces” value [25] was “greater than 80%”. For the same compound, the “Time within which the majority of the radioactivity was recovered” value [25] was ≤ 48 h, the Total radioactivity recovered [25] was “greater than 92%” and the Cmax ([1]; 30 mg) was 1570 to 1630 ng/mL. For the same compound, the half-life ([1]; Human Half-life) was 11.9 to 15.7 h, the half-life ([1]; Terminal half-life) was 11.9 to 15.7 h and the IC50 [26] was 0.93 nM. The “Changes in vital signs, ECGs, laboratory safety test results, or physical examination results” value ([27]; healthy male volunteers, any dose) was “No significant changes”, the “Tolerability of multiple doses” value ([27]; human, in vivo) was “well tolerated” and the “Tolerability of single doses” value ([27]; human, in vivo, po) was “well tolerated”. The “Effects on ECG parameters” value ([27]; humans, single and multiple doses) was “No clinically-relevant effects”, the IC50 [28] was > 30000 nM and the EC50 [29] was 3.1 nM. For the same compound, the “Effects on ECG parameters” value ([30]; dogs) was “not associated with any relevant effects”, the “Effect on blood pressure and left ventricular end-diastolic pressure” value ([30]; dogs, 0.5, 1.5, and 5 mg/kg) was “small, but significant reductions” and the Tissue distribution [31] was “systemic distribution was generally in proportion to tissue-blood flow”. The IC50 [32] was 28.9 nM, the fraction unbound [33] was 0.007 and the “Effect on urine volume and electrolyte excretion” value [34] was “dose-related decrease”. The fraction unbound [35] was 0.007.
With CCOC(=O)[C@H](CCc1ccccc1)N[C@@H](C)C(=O)N1CCC[C@H]1C(=O)O [enalapril, reference compound] the “Effect on mean arterial pressure (MAP)” value [15] was “significant, sustained reduction in MAP”.
With CCOCCn1nc(C(=O)NS(C)(=O)=O)c2nc(N(C)CC)nc(Nc3cc(C)ccn3)c21 [Example 1 (polymorph form C), 1-(2-ethoxyethyl)-5-(ethyl(methyl)amino)-7-((4-methylpyridin-2-yl)amino)-N-(methylsulfonyl)-1H-pyrazolo[4,3-d]pyrimidine-3-carboxamide] the “Systemic exposure, polymorph form C versus form B” value [36] was “no differences in systemic exposure” and the “Systemic exposure, polymorph form C versus form B” value [37] was “no differences in systemic exposure”.
